According to publication PMC7284870, “Antimicrobial Peptides from Rat-Tailed Maggots of the Drone Fly Eristalis tenax Show Potent Activity against Multidrug-Resistant Gram-Negative Bacteria” (Microorganisms, 2020):
In brackets after ≈: the same amount, converted by molar mass. Where two headings read alike, the source gives them in different places. No end group written: not given here.

Tests used:
[1] = test system: E. coli RKI 131/08; experiment: microbe, parasite or virus in culture; assay type: cell-based, Escherichia coli
Protocol: (§1) The strains that were used in this study (Table 2 and Table S1) were cultivated at 37 °C in cation-adjusted Mueller–Hinton broth (CAMB) in Erlenmeyer flasks, or on the same medium with agar in Petri dishes. Exceptionally, Mycobacterium smegmatis was cultivated at 37 °C in brain heart infusion (BHI) medium that was supplemented with 1% Tween-80 in Erlenmeyer flasks, or on the same medium lacking detergent but with agar in Petri dishes. Strains listed with Robert Koch Institute (RKI) strain numbers are clinical isolates from the RKI strain collection originating from hospitalized patients in Germany. The remaining strains originated from the Sanofi strain collection and they were originally purchased from the American Type Culture Collection or the German Collection of Microorganisms and Cell Cultures. Meropenem/colistin-resistant strains were maintained, as described above, with the appropriate antibiotic added at levels below the minimal inhibitory concentration (MIC).
(§2) The MIC values were determined in 384-well microtiter plates with an assay volume of 20 µL. Immediately before each assay, the cultures of test organisms (bacteria grown for 18 h, Candida albicans and M. smegmatis grown for 48 h) were diluted with the appropriate medium to a density of 1 × 10^6 cells/mL (C. albicans), 1 × 10^5 cells/mL (M. smegmatis) or 5 × 10^5 cells per mL (other species). […] We transferred 2-µL aliquots from this dilution series to new 384-well microtiter plates while using a CyBio-Well 384-channel automated pipettor (Analytic Jena, Jena, Germany) and added 18 µL of the diluted suspension of each test species using a Viafill reagent dispenser (Integra), thus reducing the final peptide concentration 10-fold to the range 1024–0.03125 µg/mL. […] The growth of M. smegmatis was measured using the BacTiter-Glo luminescence test system (Promega, Madison, WI, USA). The growth of the other species was determined by visual inspection of the microtiter plate and turbidimetry based on the optical density at 600 nm (OD600). The MIC was defined as the peptide concentration at which no bacterial growth was observed. We supplemented the test medium with either 150 mM NaCl or 1.25 mM CaCl2 to represent monovalent and divalent cations to simulate physiological conditions.

[2] = test system: Enterobacter cloacae RKI 146/09; experiment: microbe, parasite or virus in culture; assay type: cell-based
Protocol: as §1, §2

[3] = test system: A. baumannii RKI 19/09; experiment: microbe, parasite or virus in culture; assay type: cell-based, Acinetobacter baumannii
Protocol: as §1, §2

[4] = test system: S. aureus ATCC 33592; assay type: cell-based, Staphylococcus aureus
Outline: (§3)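 Broth microdilution in cation-adjusted Mueller–Hinton broth, inoculum 5 × 10^5 cells/mL from 18 h cultures; final peptide range 1024–0.03125 µg/mL, medium supplemented with 150 mM NaCl or 1.25 mM CaCl2. Growth scored visually and by OD600; MIC = lowest concentration without growth.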

[5] = test system: E. coli ATCC 25922
Outline: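 MIC was determined by broth microdilution in cation-adjusted Mueller–Hinton broth at 5 × 10^5 cells/mL. Peptides were tested at 1024–0.03125 µg/mL final, with 18 h incubation at 37 °C with shaking. Growth was scored visually and by OD600. Medium was supplemented with 150 mM NaCl or 1.25 mM CaCl2.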

[6] = test system: Escherichia coli D31; assay type: cell-based
Outline: as §3

[7] = test system: Pseudomonas aeruginosa ATCC 27853; assay type: cell-based
Outline: as §3

[8] = test system: HepG2 cells; experiment: Cytotoxicity (ATP quantification and neutral red uptake)
Protocol: The cytotoxicity of the AMPs was determined in 96-well microtiter plates with an assay volume of 200 µL. The peptides were dissolved in PBS and a 1:2 dilution series in DMEM-F12 medium (supplemented with 1% nonessential amino acids, 1% sodium pyruvate, and 5% heat-inactivated fetal calf serum) was prepared in nine steps to produce test concentrations of 400, 200, 100, […], 12.5, 6.25, 3.13, and 1.56 μM (1655–6.46 µg/mL for EtCec1-a, 1713–6.68 µg/mL for EtCec2-a, 1622–6.33 µg/mL for EtCec3-a, 2661–10.38 µg/mL for EtDip). Stocks of the mycoplasma-free HepG2 cell line HB-8065 (ATCC) stored in liquid nitrogen were seeded at a density of 20,000 cells/well into 96-well microplates in 100 μL DMEM-F12 supplemented as above. After incubation overnight at 37 ± 1 °C in a 5% CO2 atmosphere, 100 μL of the test solution was added per well in six replicates. Ketoconazole was used as a positive control and PBS as a negative control. The plates were incubated for 24 h, as above, and the cell viability was assessed using the luminescent CellTiter-Glo ATP monitoring kit (Promega) to determine the quantity of ATP.
HepG2 cells and peptides were prepared as described above, and cell viability was assessed based on the ability of lysosomes to store the dye neutral red (Sigma–Aldrich, ST. Louis, MO, USA). The cells were incubated for 3 h with a neutral red solution, washed twice, and lysed. After complete lysis, the quantity of neutral red was determined by measuring the absorption at 540 nm while using a Tecan Genios Pro plate reader.

[9] = CAMB + 0.075 µg/mL colistin (Col), n=3
[10] = CAMB + A000173039A [0.25 µg/mL]
[11] = CAMB + A000499933A [0.0625 µg/mL]
[12] = CAMB + A000500059A [0.0625 µg/mL]
[13] = CAMB + A000500146A [0.0625 µg/mL]
[14] = CAMB + Colistin E1 [0.016 µg/mL]
[15] = CAMB + Colistin E2 [0.016 µg/mL]
[16] = CAMB adjusted to 150 mM NaCl, n=3
[17] = HepG2, 24 h, cell viability >80%

Row | Compound | MIC ([4]; CAMB, 18 h, 37 °C, n = 4) [mg/L] | MIC [5, 9] [mg/L] | MIC ([5]; CAMB + A000160918 [4 µg/mL]) [mg/L] | MIC ([5]; CAMB + A000161246 [4 µg/mL]) [mg/L] | MIC ([5]; CAMB + A000173031A [4 µg/mL]) [mg/L] | MIC ([5]; CAMB + A000173033A [4 µg/mL]) [mg/L] | MIC [5, 10] [mg/L] | MIC ([5]; CAMB + A000173380A [4 µg/mL]) [mg/L] | MIC ([5]; CAMB + A000498432A [4 µg/mL]) [mg/L] | MIC [5, 11] [mg/L] | MIC [5, 12] [mg/L] | MIC [5, 13] [mg/L] | MIC ([5]; CAMB + A000501181A [4 µg/mL]) [mg/L] | MIC [5, 14] [mg/L] | MIC [5, 15] [mg/L] | MIC ([5]; CAMB + PMB [0.016 µg/mL]) [mg/L] | MIC ([5]; CAMB + PMBN [4 µg/mL]) [mg/L] | MIC ([5]; CAMB, 18 h, 37 °C, n = 4) [mg/L] | MIC ([5]; Table 6, CAMB) [mg/L] | MIC [1, 9] [mg/L] | other results
1 | C[C@@H](O)[C@H]1C(=O)N2C(C(=O)O)=C(S[C@@H]3CN[C@H](C(=O)N(C)C)C3)[C@H](C)[C@H]12 [MEM, meropenem] | – | – | – | – | – | – | – | – | – | – | – | – | – | – | – | – | – | – | – | – | MIC ([1]; Escherichia coli, RKI131/08): 32 mg/L (≈ 83.4 µM); MIC ([2]; Enterobacter cloacae, RKI146/09): 16 mg/L (≈ 41.7 µM); MIC ([3]; Acinetobacter baumannii, RKI19/09, Table S1, RKI 19/09, read-out: MIC): > 64 mg/L
2 | GFLKKIGKKLEGAVQRTRDATIQTIAVAQAAANVAATAKQ-NH2 [EtCec1-NH2] | – | – | – | – | – | – | – | – | – | – | – | – | – | – | – | – | – | – | – | – | MIC ([4]; ATCC 33592, 18 h): >1024 mg/L; MIC ([5]; ATCC 25922, 18 h): 8 mg/L; MIC ([1]; RKI 131/08, 18 h): 4 mg/L; MIC ([3]; RKI 19/09, 18 h): 4 mg/L; MIC ([6]; D31, 18 h): 4 mg/L; MIC ([7]; ATCC 27853, 18 h): 32 mg/L; NOEC [8]: greater than 1655 µg/mL
3 | GWLRDFGKRIERTGQNIRDATIQTIGIAQEAANVAATLK-NH2 [EtCec2-NH2] | >1024 | 4 | >256 | >256 | >256 | >256 | >256 | >256 | >256 | 128 | 256 | 4 | 256 | 4 | 2 | 2 | >256 | 32 | 32 | 2 | MIC [5, 16]: 32 mg/L; MIC ([5]; Table 4, CAMB, n=3): 32 mg/L; MIC [1, 16]: 16 mg/L; MIC ([1]; Table 4, CAMB, n=3): 16 mg/L; MIC [2, 9]: 32 mg/L; MIC [2, 16]: 64 mg/L; MIC ([2]; Table 4, CAMB, n=3): 32 mg/L; MIC [3, 9]: 8 mg/L; MIC [3, 16]: 16 mg/L; MIC ([3]; Table 4, CAMB, n=3): 8 mg/L; MIC ([6]; CAMB, 18 h, 37 °C, n = 4): 4 mg/L; MIC ([7]; CAMB, 18 h, 37 °C, n = 4): >1024 mg/L; NOEC [8, 17]: 535 µg/mL
4 | QFNMQGGGSPRQGFDVNANARFPIWQSQNARNSVHGTASYAQHLGGPYGNSRPNFGGGLQFT [EtDip] | >1024 | 4 | >256 | >256 | >256 | >256 | >256 | >256 | >256 | >256 | >256 | 4 | >256 | >256 | 2 | 2 | >256 | >1024 | >256 | 4 | MIC ([5]; Table 5, CAMB, n=3): >1024 mg/L; MIC ([1]; Table 5, CAMB, n=3): >1024 mg/L; MIC [2, 9]: >1024 mg/L; MIC ([2]; Table 5, CAMB, n=3): >1024 mg/L; MIC [3, 9]: 1024 mg/L; MIC ([3]; Table 5, CAMB, n=3): >1024 mg/L; MIC ([6]; CAMB, 18 h, 37 °C, n = 4): >1024 mg/L; MIC ([7]; CAMB, 18 h, 37 °C, n = 4): >1024 mg/L; NOEC [8, 17]: > 1330 µg/mL
